The text below walks through data of US9315467B2, “Compounds for nonsense suppression, and methods for their use” (priority 2004, dated 2016).

The term melting point denotes the temperature of the solid-liquid transition.

SMILES strings stand for the structures.

Compound `Cc1ccc(-c2cc(-c3cccc(C(=O)O)c3)ncn2)cc1` [Compound 3, 3-(6-p-Tolyl-pyrimidin-4-yl)-benzoic acid] registered a melting point of 201 to 203 °C.
Under `CC(C)c1ccc(-c2nccc(-c3cccc(C(N)=O)c3)n2)cc1` [Compound 4, 3-[2-(4-Isopropyl-phenyl)-pyrimidin-4-yl]-benzamide] stands 167 to 169 °C; under `Cc1ccc(-c2nccc(-c3ccc(C(=O)O)cc3)n2)cc1` [Compound 10, 4-(2-p-Tolyl-pyrimidin-4-yl)-benzoic acid], over 310 °C.
Compound `Cc1ccc(-c2cc(-c3ccc(C(=O)O)cc3)ccn2)cc1` [Compound 12, 4-(2-p-Tolyl-pyridin-4-yl)-benzoic acid] gave a melting point of 286 to 289 °C.
The compound `Cc1ccc(-c2ccnc(-c3ccc(C(=O)O)cc3)c2)cc1` [Compound 13, 4-(4-p-Tolyl-pyridin-2-yl)-benzoic acid] registered a melting point of 288 to 291 °C.
For `Cc1ccc(-c2cccc(-c3ccc(C(=O)O)cc3)n2)cc1` [Compound 14, 4-(6-p-Tolyl-pyridin-2-yl)-benzoic acid], the melting point was in the range of 283 to 284 °C.
In turn, `Cc1ccc(-c2cncc(-c3ccc(C(=O)O)cc3)c2)cc1` [Compound 15, 4-(5-p-Tolyl-pyridin-3-yl)-benzoic acid] gave a melting point of 260 to 262 °C.
Under `COc1cccc(-c2nccc(-c3ccc(C(=O)O)cc3)n2)c1` [Compound 16, 4-[2-(3-Methoxy-phenyl)-pyrimidin-4-yl]-benzoic acid] stands 270 to 273 °C; under `CC(C)(C)c1ccc(-c2nccc(-c3ccc(C(=O)O)cc3)n2)cc1` [Compound 17, 4-[2-(4-tert-Butyl-phenyl)-pyrimidin-4-yl]-benzoic acid], 293 to 296 °C.
Consider `O=C(O)c1ccc(-c2ccnc(-c3ccc(F)cc3)n2)cc1` [Compound 18, 4-[2-(4-Fluoro-phenyl)-pyrimidin-4-yl]-benzoic acid], for which the melting point was over 300 °C.
As for `O=C(O)c1ccc(-c2ccnc(-c3cccc(OC(F)(F)F)c3)n2)cc1` [Compound 19, 4-[2-(3-Trifluoromethoxy-phenyl)-pyrimidin-4-yl]-benzoic acid], the melting point was over 300 °C.
In turn, `O=C(O)c1ccc(-c2ccnc(-c3cccc(Cl)c3)n2)cc1` [Compound 20, 4-[2-(3-Chloro-phenyl)-pyrimidin-4-yl]-benzoic acid] had a melting point of 291 to 294 °C.
For `O=C(O)c1ccc(-c2ccnc(-c3ccc(C(F)(F)F)cc3)n2)cc1` [Compound 21, 4-[2-(4-Trifluoromethyl-phenyl)-pyrimidin-4-yl]-benzoic acid], the melting point is over 300 °C.
`O=C(O)c1ccc(-c2ccnc(-c3ccc(Cl)cc3)n2)cc1` [Compound 22, 4-[2-(4-Chloro-phenyl)-pyrimidin-4-yl]-benzoic acid] displayed a melting point of over 300 °C.
For `O=C(O)c1ccc(-c2ccnc(-c3ccccc3F)n2)cc1` [Compound 23, 4-[2-(2-Fluoro-phenyl)-pyrimidin-4-yl]-benzoic acid] the value was over 300 °C; for `O=C(O)c1ccc(-c2ccnc(-c3cccc(F)c3)n2)cc1` [Compound 25, 4-[2-(3-Fluoro-phenyl)-pyrimidin-4-yl]-benzoic acid], 300 to 303 °C; for `Cc1ccccc1-c1nccc(-c2ccc(C(=O)O)cc2)n1` [Compound 26, 4-(2-o-Tolyl-pyrimidin-4-yl)-benzoic acid], 198 to 200 °C.
Under `O=C(O)c1ccc(-c2ccnc(-c3ccc(OC(F)(F)F)cc3)n2)cc1` [Compound 27, 4-[2-(4-Trifluoromethoxy-phenyl)-pyrimidin-4-yl]-benzoic acid] stands 299 to 302 °C; under `O=C(O)c1ccc(-c2ccnc(-c3ccccc3)n2)cc1` [Compound 28, 4-(2-Phenyl-pyrimidin-4-yl)-benzoic acid], over 300 °C.
As to `COc1ccc(-c2nccc(-c3ccc(C(=O)O)cc3)n2)cc1` [Compound 30, 4-[2-(4-Methoxy-phenyl)-pyrimidin-4-yl]-benzoic acid], the melting point was over 300 °C.
In turn, `O=C(O)c1ccc(-c2ccnc(-c3ccccc3C(F)(F)F)n2)cc1` [Compound 31, 4-[2-(2-Trifluoromethyl-phenyl)-pyrimidin-4-yl]-benzoic acid] came in with a melting point of 251 to 252 °C.
`O=C(O)c1ccc(-c2nccc(-c3ccc(Br)cc3)n2)cc1` [Compound 33, 4-[4-(4-Bromo-phenyl)-pyrimidin-2-yl]-benzoic acid] displayed a melting point of 302 to 305 °C.
With `O=C(O)c1ccc(-c2nccc(-c3ccc(OC(F)(F)F)cc3)n2)cc1` [Compound 34, 4-[4-(4-Trifluoromethoxy-phenyl)-pyrimidin-2-yl]-benzoic acid], the melting point lay within 234 to 236 °C.
Under `Cc1ccc(-c2ccnc(-c3ccc(C(=O)O)cc3)n2)cc1` [Compound 35, 4-(4-p-Tolyl-pyrimidin-2-yl)-benzoic acid] stands 287 to 289 °C; under `CC(C)c1ccc(-c2ccnc(-c3ccc(C(=O)O)cc3)n2)cc1` [Compound 36, 4-[4-(4-Isopropyl-phenyl)-pyrimidin-2-yl]-benzoic acid], 243 to 245 °C.
Compound `COc1ccc(-c2ccnc(-c3ccc(C(=O)O)cc3)n2)cc1` [Compound 37, 4-[4-(4-Methoxy-phenyl)-pyrimidin-2-yl]-benzoic acid] had a melting point of 263 to 265 °C.
`O=C(O)c1ccc(-c2nccc(-c3cccc(F)c3)n2)cc1` [Compound 38, 4-[4-(3-Fluoro-phenyl)-pyrimidin-2-yl]-benzoic acid] had a melting point of 249 to 252 °C.
Compound `O=C(O)c1ccc(-c2nccc(-c3ccc(-c4ccccc4)cc3)n2)cc1` [Compound 39, 4-(4-Biphenyl-4-yl-pyrimidin-2-yl)-benzoic acid] registered a melting point of 293 to 296 °C.
Under `O=C(O)c1ccc(-c2nccc(-c3ccc4c(c3)OCCO4)n2)cc1` [Compound 40, 4-[4-(2,3-Dihydro-benzo[1,4]dioxin-6-yl)-pyrimidin-2-yl]-benzoic acid] stands 272 to 274 °C; under `O=C(O)c1ccc(-c2nccc(-c3ccc(-n4ccnc4)cc3)n2)cc1` [Compound 41, 4-[4-(4-Imidazol-1-yl-phenyl)-pyrimidin-2-yl]-benzoic acid], over 305 °C.
`O=C(O)c1cccc(-c2nccc(-c3ccc4c(c3)OCCO4)n2)c1` [Compound 42, 3-[4-(2,3-Dihydro-benzo[1,4]dioxin-6-yl)-pyrimidin-2-yl]-benzoic acid]: the melting point was in the range of 239 to 241 °C.
For `O=C(O)c1cccc(-c2ncnc(-c3ccc(F)cc3)n2)c1` [Compound 44, 3-[4-(4-Fluoro-phenyl)-[1,3,5]triazin-2-yl]-benzoic acid] the value was 266 to 269 °C; for `CCOc1ccc(-c2ncnc(-c3cccc(C(=O)O)c3)n2)cc1` [Compound 45, 3-[4-(4-Ethoxy-phenyl)-[1,3,5]triazin-2-yl]-benzoic acid], 269 to 272 °C; for `Cc1ccc(-c2ncnc(-c3ccc(C(=O)O)cc3)n2)cc1` [Compound 46, 4-(4-p-Tolyl-[1,3,5]triazin-2-yl)-benzoic acid], 288 to 290 °C.
